Our source for the melting point values is a melting point compilation (Tetko et al.; mined from patent text by program, amines drawn as free bases though some values may be those of a salt).

In turn, `Cc1cc(C)c2c(c1)[C@H]1CN(C)CC[C@@H]1CC2=O` (relative stereo) yielded a melting point greater than 250 °C.
For `CCOC(=O)C1CCc2c(C)c(O)c(C)c(C)c2O1` (stereo unspecified) the value was 108 to 109 °C; for `CCNC(c1ccccc1)(c1ccccc1)c1ccccc1`, 75 to 77 °C.
With `COc1cccc(C2=NN=C(C)Cc3cc(OC)c(OC)cc32)c1` the figure was 133 to 135 °C; with `CNC(=O)NN=Cc1ncc([N+](=O)[O-])n1C`, 221 to 223 °C; with `CC(C)(C)OC(=O)N[C@H](Cc1ccc(C(F)(F)F)cc1)[C@@H](O)c1ccc(F)cc1` (racemic), 158 to 159 °C.
With `Cc1c(Cl)cccc1N=Cc1ccc(Cl)cc1` the figure was 79 to 81 °C.
`CN1CCOc2cc(S(=O)(=O)n3c(COC(C)(C)C(=O)O)cc4cc(Cl)ccc43)ccc21`: the melting point lay within 148 to 150 °C.
With `COc1ccc(Nc2nc(NC3CCCCCC3)cc(N3CCC(O)CC3)n2)cc1Cl` the figure was 84 to 86 °C; with `CC(CC#N)C(C#N)(c1ccc(N2CCOCC2)c([N+](=O)[O-])c1)N1CCOCC1` (stereo unspecified), 175 to 177 °C.
As to `CCCCCCCC/C=C\CCCCCCCC(=O)CCCNC(=O)CCNC(=O)C1OC(C)(C)OCC1(C)C` (stereo unspecified), the melting point was 45 to 47 °C.
For `COc1ccc(-c2nc(NC(C)=O)sc2-c2cccnc2)cc1` the value was 208 to 210 °C; for `COC(=O)C(O)=CC(=O)c1ncnc2c1ncn2Cc1ccccc1`, 166 to 167 °C.
For `CC(=O)c1cn(-c2c(Cl)cc(C(F)(F)F)cc2Cl)nc1C#N` the value was 166 to 168 °C; for `c1ccc(-c2cc(CCC3CCNC3)c3ccccc3n2)cc1` (stereo unspecified), 140 °C.
As for `CC(C)(C)c1nn(-c2ccc(N)cc2Cl)c(=O)o1`, the melting point was in the range of 158 to 159 °C.
The compound `CC(C(N)=O)c1ccc2c(c1)C(=O)Cc1cccnc1S2` (stereo unspecified) registered a melting point of 190 to 192 °C.
With `COC(=O)C(C(C)C)N(C)S(=O)(=O)c1ccc(-c2ccc([N+](=O)[O-])cc2)cc1` (stereo unspecified) the figure was 117 to 118 °C.
With `N#Cc1ccc(N2CCN(Cc3ccccc3)CC2)cc1` the figure was 104 to 105 °C; with `COC(=O)Oc1sc(-c2ccc(F)cc2)nc(=O)c1-c1c(C)cc(C)cc1C`, 129 to 131 °C.
With `CC(O)(c1ccc(F)cc1)c1ccc(-c2ccncc2)cc1` (stereo unspecified) the figure was 166 to 170 °C.
As for `CC(=O)Nc1nc(C)c(S(=O)(=O)N(CCO)CCO)s1`, the melting point turned out to be 204 °C.
Consider `CCOc1ccc(-c2c(Cl)ncn2-c2ccc(S(=O)(=O)NC(C)(C)C)cc2)cc1`, for which the melting point amounted to 189 °C.
With `CC(=O)Nc1ccccc1NC(=O)CN1C(=O)c2ccccc2C1=O` the figure was 270 °C; with `Cn1cc(-c2ccc(F)cc2)c(=O)c(-c2cccc(C(F)(F)F)c2)c1`, 133 to 134 °C; with `COc1cc2c(c(OC)c1)C(Cc1ccc(-c3ccccc3OC)cc1)N(C(=O)OC(C)(C)C)CC2` (stereo unspecified), 126 to 128 °C.
Compound `O=C(Nc1nccs1)c1nc(-c2cccc3ccccc23)[nH]c1-c1ccc(Cl)cc1` gave a melting point of 206 to 208 °C.
With `Cc1cc(C(C)(C)C)c(OP2OCCN2C(C)(C)C)c(C(C)(C)C)c1` (stereo unspecified) the figure was 105 to 107 °C; with `O=C(Nc1nnn[nH]1)c1c(C(F)(F)F)nc2c(C(F)(F)F)cccc2c1O`, greater than 260 °C.
For `O=C(c1ccccc1)c1ccc2c(c1)CC(C(=O)NCCO)C2` (stereo unspecified) the value was 106 to 107 °C; for `CC(C)N(C(=O)C(Cc1ccc(C=O)cc1)NC(=O)OC(C)(C)C)C(C)C` (stereo unspecified), 152 °C; for `NC(=O)c1n[nH]c(-c2ccc(Cl)cc2)c1-c1ccc(S(N)(=O)=O)cc1`, 108 to 110 °C.
The compound `CCCOc1ccc(S(=O)(=O)N2CCN(C)CC2)cc1-c1cc2c(=O)n(C)c(=O)n(CCC)c2[nH]1` showed a melting point of 240 °C.
With `CC(C)(C)c1cc(CCc2ccc(F)cc2NC(=O)NC2CCN(Cc3ccccc3)CC2)cc(C(C)(C)C)c1O` the figure was 118 to 119 °C; with `COc1cc(C(C)=O)ccc1OCCCCN1CCC(c2n[nH]c3cc(F)ccc23)CC1`, 158 to 160 °C; with `COc1cccc(Sc2cccc(N)c2C#N)c1`, 79 to 81 °C.
For `O=C(C=C(c1ccccc1)N1CNc2cccnc21)OCCC(OCCCc1ccc(Cl)cc1)C(=O)O` (stereo unspecified) the value was 95 °C; for `CCS(=O)(=O)Nc1cc(-n2nc3ccc(Cl)cn3c2=O)c(F)cc1Cl`, 120 to 122 °C.
With `N=c1c2ccccc2ccc2ccccc12`, the melting point lay in the range of 60 to 62 °C.
For `OC[C@@H](O)[C@@H]1OC[C@H](O)[C@H]1O` (racemic) the value was 69.5 to 71 °C.
The compound `CC(C)CCn1cc([N+](=O)[O-])cc1C(=O)O` yielded a melting point of 154 to 157 °C.
For `CC(=O)NC[C@H]1CN(c2ccc(N3CCC(n4nnc(N5CCN(C#N)CC5)n4)CC3)c(F)c2)C(=O)O1` the value was 208 to 210 °C; for `CCn1c([N+](=O)[O-])cnc1C=Cc1ccccc1`, 231 to 233 °C; for `N#Cc1cccc(C(=O)c2ccc(Cl)cc2)c1`, 142 °C.
For `O=C1C=Cc2cc3c(cc2=C1)C=C(S(=O)(=O)NCCN1CCOCC1)C(=O)C=3S(=O)(=O)NCCN1CCOCC1` the value was 230 to 233 °C.
With `CCCc1c2occc(=O)c2cc2c(=O)c(-c3ccc(C(=O)O)cc3)c(C(=O)O)oc12` the figure was 250 °C; with `Cc1nc(SCc2ccc(C(=O)O)s2)sc1CC(=O)O`, 188 to 190 °C; with `COc1ccc(C2Sc3c(ccc4ccccc34)N(CCN(C)C)C(=O)C2OC(C)=O)cc1` (stereo unspecified), 122 to 124 °C.
Take `Cc1cc(-n2ccnc2)c2cccc(OCc3c(Cl)ccc(S(=O)(=O)N4CCC(CO)CC4)c3Cl)c2n1`: the melting point amounted to 100 °C.
`C#Cc1cnc2c(C)cc(OC(SC)C(=O)NC(C)(C#C)COC)cc2c1` (stereo unspecified) returned a melting point of 108 to 109 °C.
With `Cn1cc(CO)c(=O)c2cccc(Cl)c21` the figure was 182 to 184 °C.
For `Cc1cc(Cl)ccc1N=C1NCCN1` the value was 137 to 138 °C; for `O=C(CCC(F)([N+](=O)[O-])[N+](=O)[O-])NNC(=O)C(F)(F)C(F)(F)F`, 128 to 132 °C; for `CC(=O)Cc1ccc2c(c1)C1(C)CCN(C)C1N2C` (stereo unspecified), 115 to 125 °C.
For `CCc1nc(Cl)c2sccc2n1` the value was 46 to 48 °C.
On to `CCN(CC)CCCNc1ncc2cc(-c3c(C)cccc3C)c(NC(=O)NC(C)(C)C)nc2n1`, for which the melting point was in the range of 86 to 91 °C.
For `O=C(O)CCCOc1ccccc1OCCC(c1ccccc1)(c1ccccc1)c1ccccc1` the value was 107 to 108 °C.
With `COc1ccccc1N1CCN(CCCNC(=O)c2cccc3c(=O)c(C)c(C4(c5ccccc5)CCCC4)oc23)CC1` the figure was 171 to 172 °C.
For `CCNC(=O)c1cccc(-c2cccc3cc(Cc4cccc(C(F)(F)F)c4)sc23)c1` the value was 122 to 123 °C; for `CCOC(=O)C(CCc1ccccc1)NC(CCCCNC(=O)CNC(=O)OC(C)(C)C)C(=O)O` (stereo unspecified), 137 °C; for `O=C1OC(=O)C(c2ccc(Cl)cc2)=C1Cl`, 110 to 112 °C.
